According to patent publication US20260132128A1, “COMPOUND FOR RECOVERING P53 MUTATION FUNCTION AND USE THEREOF” (SHENZHEN ZHONGGE BIOLOGICAL TECHNOLOGY CO., LTD., priority 2022, published 2026):
Marks after values point to notes of the source that are not given here.

Columns and labels:
NUGC-3 cells = assay: NUGC-3 cell proliferation assay (CTG); assay type: cell-based, human; details: for Compound GI50 (nM)/Reference compound GI50 (nM): multiple ratio of GI50 of the compound to the reference compound; for GI50: Homo sapiens, NUGC-3, 144 h, 6 days, CTG
Procedure: In order to detect the inhibitory effect of the aforementioned compounds on the proliferation ability of NUGC-3 cells, 250 NUGC-3 cells (Nanjing Cobioer Biosciences Co., Ltd., CBP60492) were seeded into a 384-well plate (Corning 3765), 35 μL per well, and incubated overnight in a constant temperature incubator at 37° C. and 5% CO2. Then, 40 nL of the compound was added to the 384-well plate using an Echo 655 Liquid Handler, with a maximum final concentration of 10 μM, 1:3 serial dilutions, and a total of 10 doses. The culture was performed at 37° C. and 5% CO2 for 6 days. The plate was taken out from the incubator and equilibrated at room temperature for 10 minutes. 20 μL of CTG (Promage G7572) was added to each well of the plate according to the platemap. The plate was centrifuged at 1000 rpm for 1 min. The lysis of cells was induced by mixing on a shaker for 2 min. The plate was centrifuged at 1000 rpm for 1 min. Incubation was performed at room temperature for 10 min to stabilize luminescence signals. Luminescence values were recorded by Envision (PerkinElmer 2105-0020). GraphPad 9.0 was used to fit the inhibition rate and compound concentration into a nonlinear regression curve (dose response-variable slope) to calculate GI50, inhibition rate={1−(A−B)/(C−B)}*100%, A=signal value of compound; B=average signal of blank control; C=average signal of negative control (wherein negative control was 0.1% DMSO).

p53 Y220C [1] = biological target: T1, p53 Y220C (Homo sapiens, UniProt P04637, Y220C); assay: DNA binding test (HTRF): binding of P53Y220C protein to DNA; assay type: biochemical; details: multiple ratio of EC50 of the compound to the reference compound, DNA binding test
T1 construct: a truncated mutant containing only amino acids 94-312 of p53; made in house; host or cells: E. coli
Procedure: (§1) In order to detect the ability of the aforementioned compounds to increase the binding of P53Y220C protein to DNA, the binding activity of p53 Y220C was measured by homogeneous time-resolved fluorescence (HTRF). Recombinant His-tagged p53 Y220C for HTRF measurement was expressed in bacteria E. coli. The recombinant protein was a truncated mutant containing only amino acids 94-312 of p53, and its sequence was […] […] VEGNLR […] TFRh[…] […]. The sense strand of the DNA double strand was 5′-[…]-3′, with a biotin tag at the 5′ end for activity assay, and the antisense strand was 5′-[…]-3′ 40 mL of assay buffer (20 mM Tris HCL, pH 7.5, 50 mM NaCl, 2 mM MgCl2, 0.02% Tween 20, 0.01% BSA, 1 mM DTT) was prepared. 10 mM compound was prepared and subjected to 3-fold dilution to obtain 10 dose gradient dilutions of the compound. 20 nL of the compound was added to a 384-well assay plate (PerkinElmer 6007299) using an Echo 655 Liquid Handler. P53Y220C protein was dissolved in assay buffer to reach a final concentration of 150 nM, and 5 μL thereof was added to each well, and incubated at room temperature for 5 min. DNA was dissolved in assay buffer to reach a final concentration of 150 nM, and 5 μL thereof was added to each well, and incubated at room temperature for 15 min. Anti 6HIS-XL665 (Cisbio 61HISXLB) was dissolved in assay buffer to reach a final concentration of 20 nM, and 5 μL thereof was added to each well. Streptavidin-Eu cryptate (Cisbio 610SAKLA) was dissolved in assay buffer to reach a final concentration of 0.625 nM, and 5 μL thereof was added to each well, and incubated at 27° C. for 1 hour. The plate was then read for signal values on an Envision (PerkinElmer 2105-0020) plate reader at 665 nm and 615 nm, respectively. […] Activation rate={(A-C)/(C)}*100%, A=(signal value at 665 nm/signal value at 615 nm); C=average signal of negative control (wherein, negative control referred to 0.1% DMSO).

p53 Y220C [2] = biological target: T2, p53 Y220C (Homo sapiens, UniProt P04637, P309S/R273H/Y220C); assay: as above; assay type: biochemical; details: HTRF, activation of p53 Y220C (aa 94-312) binding to biotin DNA
T2 construct: a truncated mutant containing only amino acids 94-312 of p53; made in house; host or cells: E. coli
Procedure: as §1

Row | SMILES | Compound GI50 (nM)/Reference compound GI50 (nM) (NUGC-3 cells) | Compound EC50 (nM)/Reference compound EC50 (nM) (p53 Y220C [1]) | GI50 (NUGC-3 cells) | EC50 (p53 Y220C [2])
1 | COc1cc(NCC#Cc2nc3c(NC4CCN(C)CC4)cccn3c2CC(F)(F)F)c(NC(C)=O)cn1 [Compound 26] | C (C: GI50 of the compound ≥ 3 * GI50 of the reference compound) | C (C: EC50 of the compound≥3*EC50 of the reference compound) | – | –
2 | CNC(=O)c1ccc(NCC#Cc2nc3c(NC4CC[C@@H](N5CCCC5)C[C@@H]4F)cccn3c2CC(F)(F)F)c(OC)c1 (stereo partly drawn) [Compound 41] | B (B: GI50 of the reference compound < GI50 of the compound ≤ 3.0 * GI50 of the reference compound) | B (B: EC50 of the reference compound<EC50 of the compound≤3.0*EC50 of the reference compound) | < 1 µM | –
3 | CNC(=O)c1ccc(NCC#Cc2nc3c(N[C@@H]4CC[C@@H](N5CCCC5)C[C@@H]4F)cccn3c2CC(F)(F)F)c(OC)c1 [Compound 41] | – | – | – | < 0.1 µM
4 | CNC(=O)c1ccc(NCC#Cc2nc3c(N[C@@H]4CC[C@@H](N5CC6(CCC6)C5)C[C@@H]4F)cccn3c2CC(F)(F)F)c(OC)c1 [Compound 42] | – | – | – | < 0.1 µM
5 | CNC(=O)c1ccc(NCC#Cc2nc3c(N[C@@H]4CCC(N5CCCCC5)C[C@@H]4F)cccn3c2CC(F)(F)F)c(OC)c1 (stereo partly drawn) [Compound 43] | C (C: GI50 of the compound ≥ 3 * GI50 of the reference compound) | C (C: EC50 of the compound≥3*EC50 of the reference compound) | – | –
6 | CNC(=O)c1ccc(NCC#Cc2nc3c(NC4CC[C@@H](N5CC6(CCCCC6)C5)C[C@@H]4F)cccn3c2CC(F)(F)F)c(OC)c1 (stereo partly drawn) [Compound 45] | C (C: GI50 of the compound ≥ 3 * GI50 of the reference compound) | B (B: EC50 of the reference compound<EC50 of the compound≤3.0*EC50 of the reference compound) | – | –
7 | CNC(=O)c1ccc(NCC#Cc2nc3c(NC4CC[C@@H](N5CC6(CCOCC6)C5)C[C@@H]4F)cccn3c2CC(F)(F)F)c(OC)c1 (stereo partly drawn) [Compound 46] | B (B: GI50 of the reference compound < GI50 of the compound ≤ 3.0 * GI50 of the reference compound) | A (A: EC50 of the compound≤EC50 of the reference compound) | < 1 µM | –
8 | CNC(=O)c1ccc(NCC#Cc2nc3c(N[C@@H]4CC[C@@H](N5CC6(CCOCC6)C5)C[C@@H]4F)cccn3c2CC(F)(F)F)c(OC)c1 [Compound 46] | – | – | – | < 0.1 µM
9 | CONC(=O)c1ccc(NCC#Cc2nc3c(NC4CC[C@@H](N5CC6(COC6)C5)C[C@@H]4F)cccn3c2CC(F)(F)F)c(OC)c1 (stereo partly drawn) [Compound 53] | C (C: GI50 of the compound ≥ 3 * GI50 of the reference compound) | A (A: EC50 of the compound≤EC50 of the reference compound) | < 1 µM | –
10 | CONC(=O)c1ccc(NCC#Cc2nc3c(N[C@@H]4CC[C@@H](N5CC6(COC6)C5)C[C@@H]4F)cccn3c2CC(F)(F)F)c(OC)c1 [Compound 53] | – | – | – | < 0.1 µM
11 | COc1cc(C(=O)NCC(F)F)ccc1NCC#Cc1nc2c(NC3CC[C@@H](N4CC5(COC5)C4)C[C@@H]3F)cccn2c1CC(F)(F)F (stereo partly drawn) [Compound 55] | C (C: GI50 of the compound ≥ 3 * GI50 of the reference compound) | B (B: EC50 of the reference compound<EC50 of the compound≤3.0*EC50 of the reference compound) | – | –
12 | COc1cc(C(=O)NC2CC(F)C2)ccc1NCC#Cc1nc2c(NC3CC[C@@H](N4CC5(COC5)C4)C[C@@H]3F)cccn2c1CC(F)(F)F (stereo partly drawn) [Compound 56] | C (C: GI50 of the compound ≥ 3 * GI50 of the reference compound) | C (C: EC50 of the compound≥3*EC50 of the reference compound) | – | –
13 | CNC(=O)c1ccc(NCC#Cc2nc3c(N[C@@H]4CC[C@@H](N5CC6(COC6)C5)C[C@@H]4F)cccn3c2CC(F)(F)F)c(OC2CC2)c1 [Compound 57] | – | – | – | < 0.1 µM
14 | CNC(=O)c1ccc(NCC#Cc2nc3c(N[C@@H]4CC[C@@H](N5CC6(COC6)C5)C[C@@H]4F)cccn3c2CC(F)(F)F)c(OCF)c1 [Compound 58] | – | – | – | < 0.1 µM
15 | CNC(=O)c1ccc(NCC#Cc2nc3c(NC4CC[C@@H](N5CC6(COC6)C5)C[C@@H]4F)cccn3c2CC(F)(F)F)c(OCC(F)(F)F)c1 (stereo partly drawn) [Compound 59] | C (C: GI50 of the compound ≥ 3 * GI50 of the reference compound) | B (B: EC50 of the reference compound<EC50 of the compound≤3.0*EC50 of the reference compound) | – | –
16 | CNC(=O)c1ccc(NCC#Cc2nc3c(NC4CC[C@@H](N5CC6(COC6)C5)C[C@@H]4F)cccn3c2CC(F)(F)F)c(OC2COC2)c1 (stereo partly drawn) [Compound 60] | C (C: GI50 of the compound ≥ 3 * GI50 of the reference compound) | B (B: EC50 of the reference compound<EC50 of the compound≤3.0*EC50 of the reference compound) | – | –
17 | CNC(=O)c1ccc(NCC#Cc2nc3c(NC4CC[C@@H](N5CC6(COC6)C5)C[C@@H]4F)cccn3c2CC(F)(F)F)c(OC2CCC2)c1 (stereo partly drawn) [Compound 61] | C (C: GI50 of the compound ≥ 3 * GI50 of the reference compound) | B (B: EC50 of the reference compound<EC50 of the compound≤3.0*EC50 of the reference compound) | – | –
18 | CNC(=O)c1ccc(NCC#Cc2nc3c(NC4CC[C@@H](N5CC6(COC6)C5)C[C@@H]4F)cccn3c2CC(F)(F)F)c(OCC(F)F)c1 (stereo partly drawn) [Compound 62] | C (C: GI50 of the compound ≥ 3 * GI50 of the reference compound) | B (B: EC50 of the reference compound<EC50 of the compound≤3.0*EC50 of the reference compound) | – | –
19 | CNC(=O)c1ccc(NCC#Cc2nc3c(NC4CC[C@@H](N5CC6(COC6)C5)C[C@@H]4F)cccn3c2CC(F)(F)F)c(OCCF)c1 (stereo partly drawn) [Compound 63] | C (C: GI50 of the compound ≥ 3 * GI50 of the reference compound) | B (B: EC50 of the reference compound<EC50 of the compound≤3.0*EC50 of the reference compound) | – | –
20 | CNC(=O)c1ccc(NCC#Cc2cc3c(NC4CC[C@@H](N5CC6(COC6)C5)C[C@@H]4F)cccn3c2CC(F)(F)F)c(OC)c1 (stereo partly drawn) [Compound 65] | A (A: GI50 of the compound ≤ GI50 of the reference compound) | B (B: EC50 of the reference compound<EC50 of the compound≤3.0*EC50 of the reference compound) | < 1 µM | –
21 | CNC(=O)c1ccc(NCC#Cc2cc3c(NC4CC[C@@H](N5CC6(COC6)C5)C[C@@H]4F)ccnn3c2CC(F)(F)F)c(OC)c1 (stereo partly drawn) [Compound 68] | C (C: GI50 of the compound ≥ 3 * GI50 of the reference compound) | C (C: EC50 of the compound≥3*EC50 of the reference compound) | – | –
22 | CNC(=O)c1ccc(NCC#Cc2cc3c(N[C@@H]4CCN(C)C[C@@H]4F)ccnn3c2CC(F)(F)F)c(OC)c1 [Compound 85] | C (C: GI50 of the compound ≥ 3 * GI50 of the reference compound) | C (C: EC50 of the compound≥3*EC50 of the reference compound) | – | –
